Data as given in ChEMBL document CHEMBL1133023, “Deoxy sugar analogues of triciribine: correlation of antiviral and antiproliferative activity with intracellular phosphorylation” (J Med Chem, 2000).
pIC50: −log10 of the molar value.

Legend:
Type in all cases: functional, cell-based
[1] = Antiviral activity was tested using an enzyme-linked immunosorbent assay (ELISA) to detect HSV-1 (herpes simplex virus type 1) using BSC-1 cells; settings: Cercopithecidae
CEM-SS [2] = assay: Tested for visual cytotoxicity on uninfected CEM-SS cells; settings: Homo sapiens
CEM-SS [3] = assay: Intracellular phosphorylation (100 uM) in uninfected CEM-SS cells was studied after 24 hrs of Incubation time; settings: Homo sapiens
HFF [4] = assay: Tested for visual cytotoxicity on uninfected HFF cells; settings: Homo sapiens
HFF [5] = assay: HCMV plaque assay was performed using HFF cells and effect was calculated as a percentage of reduction in number of plaques; settings: Homo sapiens
KB = assay: Inhibition of KB cell growth was assessed; settings: Homo sapiens
L1210 = assay: Tested in vitro for cytotoxicity against murine L1210 leukemic cells; settings: Mus musculus
CEM-SS [6] = assay: Intracellular phosphorylation (100 uM) in uninfected CEM-SS cells was studied after 24 hrs of Incubation time; Value ranges from 3-5; settings: Homo sapiens

Work on `CN1N=C(N)c2cn(C3O[C@H](CO)[C@H]4O[C@H]34)c3ncnc1c23` (some centres not stated) yielded a pIC50 [1] of 4.19, a pIC50 (CEM-SS [2]) of under 4.00 and a Concentration (CEM-SS [3]) of under 5 µM. For the same compound, the pIC50 (HFF [4]) was under 4.00, the pIC50 (HFF [5]) was under 4.00 and the pIC50 (KB) was under 4.00.
For `CN1N=C(N)c2cn([C@@H]3O[C@H](COP(=O)(O)O)[C@@H](O)[C@H]3O)c3ncnc1c23` [TRICIRIBINE PHOSPHATE], the pIC50 [1] was 4.70, the pIC50 (CEM-SS [2]) was under 6.00 and the pIC50 (HFF [4]) was 4.72. The pIC50 (HFF [5]) was 6.10, the pIC50 (KB) was 5.00 and the pIC50 (L1210) was 7.60.
Work on `CN1N=C(N)c2cn(C3C[C@@H](O)[C@@H](CO)O3)c3ncnc1c23` (some centres not stated) yielded a pIC50 [1] of under 4.00, a pIC50 (CEM-SS [2]) of under 4.00 and a Concentration (CEM-SS [6]) of under 5 µM. It also gave a pIC50 (HFF [4]) of under 4.00, a pIC50 (HFF [5]) of under 4.00 and a pIC50 (KB) of under 4.00. The pIC50 (L1210) was under 4.00.
With `C[C@H]1OC(n2cc3c4c(ncnc42)N(C)N=C3N)[C@H](O)[C@@H]1O` (some centres not stated) the pIC50 [1] was under 4.00, the pIC50 (CEM-SS [2]) was under 4.00 and the Concentration (CEM-SS [6]) was under 5 µM. The pIC50 (HFF [4]) was under 4.00, the pIC50 (HFF [5]) was under 4.00 and the pIC50 (KB) was under 4.00. It also gave a pIC50 (L1210) of under 4.00.
`CN1N=C(N)c2cn([C@H]3C=C[C@@H](CO)O3)c3ncnc1c23` gave a pIC50 [1] of under 4.00, a pIC50 (CEM-SS [2]) of under 4.00 and a Concentration (CEM-SS [6]) of under 5 µM. It also gave a pIC50 (HFF [4]) of under 4.00, a pIC50 (HFF [5]) of under 4.00 and a pIC50 (KB) of under 4.00. It also gave a pIC50 (L1210) of under 4.00.
In the case of `CN1N=C(N)c2cn([C@H]3CC[C@@H](CO)O3)c3ncnc1c23`, the pIC50 [1] was under 4.00, the pIC50 (CEM-SS [2]) was under 4.00 and the Concentration (CEM-SS [3]) was 45 µM. It also gave a pIC50 (HFF [4]) of under 4.00, a pIC50 (HFF [5]) of under 4.00 and a pIC50 (KB) of under 4.00. It also gave a pIC50 (L1210) of 4.60.
`CN1N=C(N)c2cn([C@@H]3O[C@H](CO)C[C@H]3O)c3ncnc1c23` gave a pIC50 [1] of 5.22, a pIC50 (CEM-SS [2]) of 4.00 and a Concentration (CEM-SS [3]) of 276 µM. It also gave a pIC50 (HFF [4]) of under 4.00, a pIC50 (HFF [5]) of under 4.00 and a pIC50 (KB) of 4.80. It also gave a pIC50 (L1210) of 5.66.
